One compound from publication PMC13267113 (npj Drug Discovery, 2025) can be followed below.

In assay [1] the target is T1, scavenger receptor class B member 1 (SCARB1) (Homo sapiens, UniProt Q8WTV0).
T1 construct: endogenous in cells; host or cells: HepG2
T1 sequence (Q8WTV0 1-509 isoform Q8WTV0-2): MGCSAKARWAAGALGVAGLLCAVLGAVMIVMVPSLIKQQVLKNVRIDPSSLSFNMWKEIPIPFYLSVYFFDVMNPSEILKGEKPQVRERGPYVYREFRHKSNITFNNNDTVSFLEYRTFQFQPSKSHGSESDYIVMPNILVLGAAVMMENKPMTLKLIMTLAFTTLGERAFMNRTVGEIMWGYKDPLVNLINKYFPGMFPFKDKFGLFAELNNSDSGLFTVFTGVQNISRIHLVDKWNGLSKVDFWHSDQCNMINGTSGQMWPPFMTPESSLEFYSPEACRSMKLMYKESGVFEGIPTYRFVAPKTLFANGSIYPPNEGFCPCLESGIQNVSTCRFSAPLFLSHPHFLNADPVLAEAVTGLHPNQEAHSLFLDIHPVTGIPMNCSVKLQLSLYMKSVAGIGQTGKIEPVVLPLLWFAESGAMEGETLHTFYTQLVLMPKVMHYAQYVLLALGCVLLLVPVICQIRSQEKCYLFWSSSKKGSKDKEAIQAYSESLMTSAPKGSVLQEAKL
The assay can be described thus: Affinity-based protein profiling (AfBPP), SCARB1. The class given is binding. As to conditions: 12.5 µM pre-treatment before Cysto-354 (2.5 µM), HepG2, n = 4. On the procedure:
Cells were seeded in 100 mm cell-bind petri dishes with a concentration of 2.8 × 10^6 cells per sample and incubated (37 °C, 5% CO2) for 3 days to reach ~80% confluence. Cells were washed with warm PBS prior to compound addition. Compound solutions as well as the DMSO control were generally added as freshly prepared solutions in pre-warmed, serum-free culture medium. Affinity-based proteome profiling was performed by treating the respective cell line with Cysto-354 (2.5 µM) for 3 h. For competition samples, cells were treated with CN-861-2 (12.5 µM) for 1 h, prior to addition of photo-probe Cysto-354 (2.5 µM) for 3 h incubation time. Control samples were treated with DMSO. Afterwards, cells were UV-irradiated for 10 min on ice, scraped off and transferred to Eppendorf tubes for washing with 1 mL cold PBS (centrifuge 5 min, 500g, 4 °C). The cell pellet was stored at −80 °C until lysis. Further sample preparation was done as previously described. […]
Peptides were measured and online-separated using an UltiMate 3000 nano HPLC system (Dionex) coupled to a Bruker timsTOF Pro mass spectrometer via a CaptiveSpray nano-electrospray ion source and Sonation column oven. […]
MS raw data was analyzed using MaxQuant software (version 2.0.3.0) and peptides were searched against Uniprot database for Homo sapiens (taxon identifier: 9606, downloaded on 11.03.2022, canonical, reviewed). […]

Another assay concerns HepG2 (human, liver). Nature of the assay: MTT cytotoxicity HepG2. The assay is classed as cell-based. As to conditions: 72 h, n = 3. On the procedure: (§1) All cell types were cultivated at 37 °C with 5% CO2. HepG2, HEK293, HCT116, CHO-K1, HeLa-CCL-2 and Huh-7.5 were purchased from ATCC. The respective cell media (Gibco) were supplemented with 10% FBS (Gibco) before usage. Cells were used between passages #5 and #30. To obtain biological repeats, cells were split separately for at least two passages.
(§2) Cells were washed with PBS and 0.5 mL trypsin was added. Afterwards, cells were incubated for 5 min before adding 10 mL medium containing 10% FBS. Per well, 120 µL cell suspension (5 × 10^4 cells/mL) was seeded in transparent 96-well cell bind plates and incubated for 2 h (37 °C, 5% CO2). A dilution series (1:3) of test compounds was prepared in respective media containing 10% FBS and added (60 µL) to the prepared cell plate. Cells were incubated for a further 72 h (37 °C, 5% CO2). Next, 20 µL MTT (5 mg/mL in PBS) was added to each well and incubated for 2 h (37 °C, 5% CO2). The wells were emptied and 100 µL isopropanol/10 N HCl (1000:4) per well was added.
(§3) The plates were analyzed by measuring the absorbance at 570 nm (plate reader Infinite® 200 Pro, Tecan). After normalization of data to the respective solvent controls, the calculated percentage of growth inhibition was plotted using GraphPad Prism software (version 10.0.2).

The subject of a further assay is CHO-K1 (hamster, ovary). The assay can be described thus: MTT cytotoxicity CHO-K1. The assay is classed as cell-based. As to conditions: CHO-K1, 72 h, n = 3. On the procedure:
as §1, §2, §3

`CO[C@H](C(N)=O)[C@H](NC(=O)c1ccc(NC(=O)c2ccc(C#N)cc2)cc1)C(=O)Nc1ccc(C(=O)Nc2ccc(C(=O)Nc3ccc(C(=O)O)cc3)c(O)c2OC(C)C)cc1` [CN-861-2]: the “competition of SCARB1 enrichment” value in assay [1] was “significant competition”. The IC50 in the assay with HepG2 (human, liver) is above 20 µM; with CHO-K1 (hamster, ovary), above 20 µM.
